Results from US10314847B2, “Scalarane sesterterpenoid, pharmaceutical composition and topoisomerase II and Hsp90 inhibitor for treating cancer, and use and preparation method thereof” (NATIONAL DONG HWA UNIVERSITY, priority 2017, dated 2019).

Experiments:
[1] = tested on: ER stress-related proteins; assay: Western blot of ER stress-related proteins; type: cell-based, human; details: Molt 4 cells, time-dependent
Description: (§1) Oxidative stress is manifested by ROS overexpression and cannot be balanced by the available antioxidant machinery. Compound 1 of the present invention can damage the integrity of mitochondria, which are the major production sites of the superoxide anion, […]. The induction of the intracellular formation of ROS by compound 1 was determined with a carboxyl derivative of fluorescein, carboxy-H2DCFDA dye using flow cytometric analysis. […] In addition, ROS generation could induce ER stress leading to mitochondria-related apoptosis. To further investigate if ER stress is involved in the apoptotic effect induced by compound 1, Western blot analysis was used to determine the expression of ER stress-related proteins. […] Furthermore, the effect of compound 1 on the release of intracellular Ca^2+, was evaluated using fluorescent calcium indicator, Fluo 3. […] In FIG. 4(D), the induction of the typical executor caspases-3 and -7, and γH2AX, was also observed using Western blot analysis. To confirm the induction of DNA damage by compound 1 in Molt 4 cells, a comet assay under neutral electrophoresis condition was utilized. Thus, the effect of compound 1 (0.0625 μg/mL) at different time intervals (0, 3, 6 and 9 hours) on the level of nuclear DNA integrity was determined. […]

γH2AX = assay: Western blot of γH2AX expression in Molt 4 cells; type: cell-based, human; details: Molt 4 cells, 0.0625, 0.125 and 0.25 μg/mL, 24 hours
Description: Protein expression was analyzed with Western blotting. GAPDH was used as the loading control.
In order to confirm whether the DNA damage-induced by the marine terpenoids of the present invention involved the inhibition of Topo II activity, a cell-free DNA cleavage assay using an enzyme-mediated negatively supercoiled pHOT1 plasmid DNA was applied. […] These marine terpenoids suppressed Topo II activity, resulting in the inhibition of supercoiled DNA relaxation in a dose-dependent manner (FIG. 2(A)). […] To determine whether the apoptotic mechanism of compounds 1 to 3 affects γH2AX (as a biomarker of DNA damage) induction, Western blot analysis was employed to examine the activation of γH2AX.

K562 = assay: MTT assay, cytotoxic effect on K562; type: cell-based; details: Homo sapiens; K562, molar value in text
Description: (§2) The cell lines were obtained from the American Type Culture Collection (ATCC, Manassas, Va., U.S.A.) or the Japanese Collection of Research Biosources (JCRB) Cell Bank (Japan). […] Antibodies against XIAP, NFκB (p65), GADD, CDK 4, HSF 1, ATF 6 and β-tubulin were obtained from Santa Cruz Biotechnology (Santa Cruz, Calif., U.S.A.). The Hybond ECL transfer membrane and ECL Western blotting detection kits were obtained from Amersham Life Sciences (Amersham, U.K.).
(§3) Several cancer cell lines including leukemia K562, Molt 4, and HL 60 cells, prostate cancer LNCaP cells, colon cancer DLD-1 cells and breast cancer T-47D cells were used to evaluate the antiproliferative activity (referring to Table 2).

[2] = biological target: T1, Hsp90 protein (PDB ID: 1YET) (Homo sapiens, UniProt P07900); assay: Molecular docking (Autodock 4.2)
T1 construct: Compound 1 could be docked to the N-terminal domain of Hsp90
Description: (§4) It is known that mitochondria are critical intracellular loci of ROS production and ROS exposure can lead to the […] opening. The antioxidant, microsomal GST1, in the inner mitochondrial membrane can interact with the mitochondrial permeability transition (MPT) regulator proteins, such as ANT and/or CypD, to form a MPT pore contributing to mitochondria-mediated cell death. In addition, mitochondrial homeostasis of tumor cells is regulated by an organelle-specific Hsp90 chaperone network.

[3] = tested on: apoptosis-related proteins; assay: Western blot of apoptosis-related proteins; type: cell-based, human; details: Molt 4 cells, time-dependent
Description: as §1

Molt 4 = tested on: Molt 4
Description: as §2, §3, §4

Hsp90 client proteins = assay: Western blot of Hsp90, Hsp70 and Hsp90 client proteins; type: cell-based, human; details: Molt 4 cells, 0.0625 μg/mL
Description: The induction of Hsp70 is the biomarker of Hsp90 with N-terminal inhibition. Aiming to understand the relation between Hsp90 function and the expression of Hsp70 and 90 clients, Molt 4 cells were treated with compound 1 (0.0625 μg/mL) for different time intervals. […] Furthermore, as shown in FIG. 5(B), Hsp90 client proteins were suppressed, including p70^S6K, NFκB, Raf-1, p-GSK3β, MEK 1 and XIAP ([…] protein), MDM 2 and Rb2 (oncoprotein), and CDK4 (cell cycle regulatory protein), HIF 1 and HSF1 (transcription factor). The majority of Hsps accumulate in subcellular localizations that determine whether a cell is going to die or differentiate. Furthermore, the localization of Hsp70 in response to the compound 1 treatment was identified using immunofluorescence by confocal microscope.

Molt 4 cells = assay: JC-1 staining, mitochondrial membrane potential disruption; type: cell-based, human; details: Molt 4 cells, 0.0625, 0.125 and 0.25 μg/mL, 24 hours, dose-dependent
Description: Determination of Reactive Oxygen Species (ROS) Generation, Calcium Accumulation, and Matrix Metalloproteinase (MMP) Disruption:
MMP disruption, calcium accumulation and ROS generation were detected with the JC-1 cationic dye (5 μg/mL), the fluorescent calcium indicator (Fluo 3, […]) and the carboxy derivative of fluorescein (carboxy-H2DCFDA, […]), respectively. In brief, the treated cells were labeled with a specific fluorescent dye for 30 minutes. After labeling, cells were washed with PBS and resuspended in PBS at a concentration of 1×10^6 cells/mL before analysis via flow cytometry.

human topoisomerase II = biological target: T2, human topoisomerase II (Homo sapiens, UniProt P11388); assay: Assay of topoisomerase II catalytic inhibitors and poisons (cell-free pHOT1 DNA relaxation/cleavage); type: biochemical; details: cell-free system; read-out: Topo II activity IC50 (converted)
T2 construct: purchased Topogen
Description: Assay of Topoisomerase II Catalytic Inhibitors and Poisons:
Reactions were terminated by adding 2 μL of 10% SDS to facilitate trapping the enzyme in a cleavage complex, followed by the addition of 2.5 μL of proteinase K (50 μg/mL) to digest the bound protein (incubated at 37° C. for 15 minutes) and finally by adding 0.1 volume of the sample loading dye. The DNA products were analyzed via electrophoresis through vertical 2% agarose gels at 2 voltage/cm in 0.5×TAE buffer. Gels were stained with ethidium bromide (EtBr) and photographed using an Eagle Eye II system (Stratagene, La Jolla, Calif., U.S.A.). The quantitative analysis of the DNA Topo II activity was performed.

U937 = assay: MTT assay, cytotoxic effect on U937; type: cell-based; details: Homo sapiens, U-937; U937, molar value in text
Description: as §2, §3

T2 sequence (P11388 whole entry): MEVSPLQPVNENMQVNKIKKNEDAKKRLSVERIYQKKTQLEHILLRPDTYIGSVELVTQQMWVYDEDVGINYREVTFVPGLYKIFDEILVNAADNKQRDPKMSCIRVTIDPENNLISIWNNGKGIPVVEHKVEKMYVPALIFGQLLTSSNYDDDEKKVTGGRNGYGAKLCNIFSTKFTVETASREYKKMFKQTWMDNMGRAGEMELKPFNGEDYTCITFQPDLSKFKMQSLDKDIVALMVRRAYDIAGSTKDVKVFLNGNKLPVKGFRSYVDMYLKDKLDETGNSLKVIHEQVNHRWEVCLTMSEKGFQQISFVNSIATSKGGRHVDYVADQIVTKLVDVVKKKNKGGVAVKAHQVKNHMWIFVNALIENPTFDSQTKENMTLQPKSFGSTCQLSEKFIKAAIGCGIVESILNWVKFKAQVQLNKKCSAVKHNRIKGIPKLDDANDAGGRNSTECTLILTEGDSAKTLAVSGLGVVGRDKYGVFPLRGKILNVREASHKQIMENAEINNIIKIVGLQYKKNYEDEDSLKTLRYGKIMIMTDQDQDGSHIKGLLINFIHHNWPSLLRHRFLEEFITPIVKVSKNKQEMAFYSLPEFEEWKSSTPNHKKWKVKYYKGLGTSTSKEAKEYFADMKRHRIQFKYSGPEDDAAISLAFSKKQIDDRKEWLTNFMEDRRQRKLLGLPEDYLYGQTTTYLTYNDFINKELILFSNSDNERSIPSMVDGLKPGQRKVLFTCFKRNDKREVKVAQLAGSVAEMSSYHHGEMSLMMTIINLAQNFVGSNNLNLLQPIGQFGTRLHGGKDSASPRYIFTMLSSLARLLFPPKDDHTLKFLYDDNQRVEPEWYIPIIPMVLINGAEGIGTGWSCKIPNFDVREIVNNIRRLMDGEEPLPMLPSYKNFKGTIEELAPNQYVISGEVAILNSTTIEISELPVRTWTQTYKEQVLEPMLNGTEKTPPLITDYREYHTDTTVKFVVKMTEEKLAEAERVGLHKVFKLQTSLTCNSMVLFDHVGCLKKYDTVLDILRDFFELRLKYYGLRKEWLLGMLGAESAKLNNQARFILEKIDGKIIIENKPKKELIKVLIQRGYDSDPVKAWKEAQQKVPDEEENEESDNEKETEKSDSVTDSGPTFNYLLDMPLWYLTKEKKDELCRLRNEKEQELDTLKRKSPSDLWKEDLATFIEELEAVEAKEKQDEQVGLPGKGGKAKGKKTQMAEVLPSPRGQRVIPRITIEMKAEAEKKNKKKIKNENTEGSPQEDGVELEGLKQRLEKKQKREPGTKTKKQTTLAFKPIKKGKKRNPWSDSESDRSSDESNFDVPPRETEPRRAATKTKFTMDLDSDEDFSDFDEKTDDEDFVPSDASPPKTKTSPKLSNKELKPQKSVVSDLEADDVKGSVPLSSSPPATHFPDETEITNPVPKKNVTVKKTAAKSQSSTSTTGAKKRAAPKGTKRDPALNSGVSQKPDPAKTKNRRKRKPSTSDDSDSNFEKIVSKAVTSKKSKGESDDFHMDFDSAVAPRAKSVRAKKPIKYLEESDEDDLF

Q: What does the source list for `CC[C@@]1(C)CCC[C@]2(C)[C@H]3C[C@@H](OC(=O)C[C@@H](C)O)[C@]4(C)[C@@H](C=O)C(C(C)=O)=CC[C@H]4[C@]3(C)CC[C@@H]12` (relative stereo) [Compound 1, 12β-(3′β-hydroxybutanoyloxy)-20,24-dimethyl-24-oxo-scalara-16-en-25-al]?
A: Expression of ER stress-related proteins [1]: promoted the levels of Bip, Chop, Grp 94 and the activation and cleavage of ATF 6 but suppressed the levels of PERK and IRE 1; Expression of γH2AX (DNA damage biomarker) (γH2AX): significantly enhanced the expression of γH2AX in a dose-dependent manner; IC50 (K562): 2.08 nM; Potency of Hsp90 inhibition constant relative to 17-AAG [2]: > 1430 folds; Cleavage of apoptosis-related proteins [3]: PARP, caspases-8 and -9 cleavages were significantly increased in a time-dependent manner; Cytotoxic effect IC50, Molt 4 (Molt 4): 0.01 µg/mL; Expression of HSF 1 protein (Hsp90 client proteins): attenuated; Hsp90 client proteins (p70S6K, NFκB, Raf-1, p-GSK3β, MEK 1, XIAP, MDM 2, Rb2, CDK4, HIF 1, HSF1) (Hsp90 client proteins): suppressed; Expression of Hsp70 (Hsp90 client proteins; different time intervals): increased in a time-dependent manner; Expression of Hsp90 protein (Hsp90 client proteins; different time intervals): did not notably attenuate; Mitochondrial membrane potential (JC-1) (Molt 4 cells): disruption in mitochondrial membrane potential; IC50 (human topoisomerase II): 3950 nM; IC50 (U937): 2.08 nM
